Results: patent US4416892A, “Method of treating hypersensitivity disease with benzoxazole derivatives” (Lilly Industries Limited, priority 1981, dated 1983)

The compounds below were run on SRS-A release (assay: guinea-pig chopped lung test (inhibition of SRS-A / mediator release)). Conditions: Cavia porcellus, 0.25 h; 3×10^-5 M; ovalbumin-sensitised guinea pig lung, antigen challenge, 37° C., 15 mins; mean of four samples.
Format: cell-based
Procedure: These tests are well-recognised as indicative of anti-allergy activity in humans and mammals in general. Compounds were tested in the guinea pig chopped lung test referred to above. […] Male albino guinea pigs (250-350 g) were sensitised with ovalbumin (100 mg s/c+100 mg i p.) and three weeks later killed, their lungs removed and perfused clear of blood with Tyrode's solution. The lungs were chopped into 0.5 mm cubes and divided into 400 mg aliquots. After washing and equilibration at 37° C., the aliquots were challenged with antigen in the presence or absence of the test compound. One control group was not challenged and was used to assess non-anaphylactic SRS-A release. Following incubation with rocking at 37° C. for 15 mins, each supernatant was removed and bio-assayed. Results are expressed as the percentage inhibition of SRS-A release after exposure to 3×10^-5M solutions of test compound. Each result is the mean of four samples.
CC(C(=O)O)c1ccc2nc(-c3ccccc3Cl)oc2c1 (stereo not drawn) [2-(2-chlorophenyl)-α-methyl-6-benzoxazoleacetic acid] gave an inhibition at 30 µM of 16%. Compound CC(C(=O)O)c1ccc2oc(-c3cccc(C(F)(F)F)c3)nc2c1 (stereo not drawn) [2-(3-trifluoromethylphenyl)-α-methyl-5-benzoxazoleacetic acid] has an inhibition at 30 µM of 27%. CC(C(=O)O)c1ccc2oc(-c3ccc(Cl)cc3)nc2c1 (stereo not drawn) [2-(4-chlorophenyl)-α-methyl-5-benzoxazoleacetic acid] showed an inhibition at 30 µM of 62%. For CC(C(=O)O)c1ccc2nc(-c3ccc(Cl)cc3)oc2c1 (stereo not drawn) [2-(4-chlorophenyl)-α-methyl-6-benzoxazoleacetic acid], the inhibition at 30 µM was 38%. CC(C(=O)O)c1ccc2oc(-c3ccc(F)cc3)nc2c1 (stereo not drawn) [2-(4-fluorophenyl)-α-methyl-5-benzoxazoleacetic acid] showed an inhibition at 30 µM of 36%.

These compounds were tested on allergic bronchospasm (assay: Herxheimer test (allergic bronchospasm in sensitised guinea pigs)). Conditions: dose 50 (first column; head is a drawing), oral, 4 hours before ovalbumin challenge, mepyramine 0.5 mg/kg s.c.; ratio of 1.4 or greater significant.
Format: in vivo, guinea pig
Procedure: Male guinea pigs were sensitised with ovalbumin and then exposed to ovalbumin aerosol (1% w/v solution) in an observation chamber. The animals were kept in the exposure chamber until symptoms of respiratory distress, terminating in a characteristic convulsive cough. The time of exposure is the "collapse time". […] Accordingly, the response to each compound in the presence of mepyramine (0.5 mg/kg s.c.) given half an hour before challenge was studied. The compound itself was given orally four hours before antigen challenge. A protection ratio of 1.4 or greater is considered significant.
CC(C(=O)O)c1ccc2oc(-c3ccc(Cl)cc3)nc2c1 (stereo not drawn) [2-(4-chlorophenyl)-α-methyl-5-benzoxazoleacetic acid] gave a protection ratio of 2.7.
